In US20100168179A1, “6-ALKENYL-, 6-ALKINYL- AND 6-EPOXY-EPOTHILONE DERIVATIVES, PROCESS FOR THEIR PRODUCTION, AND THEIR USE IN PHARMACEUTICAL PREPARATIONS” (priority 1999, published 2010):
One block for each compound: values may come before it.

How the values were obtained:
[1] = tested on: MCF-7; assay: growth inhibition of human MCF-7 breast carcinoma cell line, crystal-violet assay; format: cell-based
From the text: (§1) In Vitro Activity of Epothilone Derivatives on Human Tumor Cell Lines
(§2) a) IC50 values [nM] for the growth inhibition of human MCF-7-breast and multi-drug-resistant NCl/ADR-carcinoma cell lines of epothilone derivatives with 13Z-unsaturated in the crystal-violet assay in comparison to Taxol.
(§3) b) IC50 values [nM] for the growth inhibition of human MCF-7-breast- and multi-drug-resistant NCl/ADR carcinoma cell lines of epothilone derivative with 13,14-α-epoxide, which was formed from the 13-Z-configured double bond in the crystal-violet assay in comparison to Taxol.
(§4) c) IC50 values [nM] for the growth inhibition of human MCF-7-breast- and multi-drug-resistant NCl/ADR-carcinoma cell lines of epothilone derivatives with 13,14-epoxide, which was formed from the 13-E-configured double bond, in a crystal-violet assay in comparison to Taxol.

[2] = tested on: NCl/ADR; assay: growth inhibition of multi-drug-resistant NCl/ADR carcinoma cell line, crystal-violet assay; format: cell-based, human; conditions: for IC50: crystal-violet assay, multi-drug-resistant line; for Selectivity = IC50-(NCl/ADR): IC50 (MCF-7): Table 1, ratio NCl/ADR to MCF-7
From the text: as §1, §2, §3, §4

[3] = Table 1, epothilone derivatives with 13Z-unsaturated
[4] = Table 2, 13,14-α-epoxide formed from the 13-Z-configured double bond
[5] = Table 2, ratio NCl/ADR to MCF-7
[6] = Table 3, 13,14-epoxide formed from the 13-E-configured double bond
[7] = Table 3, ratio NCl/ADR to MCF-7

SMILES: C#CC[C@H]1C(=O)C(C)(C)[C@@H](O)CC(=O)O[C@H](/C(F)=C/c2csc(C)n2)C/C=C(/C)CCC[C@H](C)[C@@H]1O [Example 23, (4S,7R,8S,9S,13Z,16S(Z))-4,8-Dihydroxy-16-(1-fluoro-2-(2-methylthiazol-4-yl)ethenyl)-7-(prop-2-in-1-yl)-1-oxa-5,5,9,13-tetramethyl-cyclohexadec-13-ene-2,6-dione]
IC50 [1, 3]: 11 nM
IC50 [2, 3]: 62 nM
Selectivity = IC50-(NCl/ADR): IC50 (MCF-7) [2]: 5.6

SMILES: C#CCC[C@H]1C(=O)C(C)(C)[C@@H](O)CC(=O)O[C@H](/C(C)=C/c2ccccn2)C[C@@H]2O[C@]2(C)CCC[C@H](C)[C@@H]1O [Example 4A, (1S,3S(E),7S,10R,11S,12S,16R)-7,11-Dihydroxy-10-(but-3-in-1-yl)-3-(1-methyl-2-(2-pyridyl)ethenyl)-8,8,12,16-tetramethyl-4,17-dioxabicyclo[14.1.0]heptadecane-5,9-dione]
IC50 [1, 4]: 1.3 nM
IC50 [2, 4]: 9.1 nM
Selectivity = IC50-(NCl/ADR): IC50-(MCF-7) [2, 5]: 7.0

SMILES: C#CCC[C@H]1C(=O)C(C)(C)[C@@H](O)CC(=O)O[C@H](/C(C)=C/c2ccccn2)C/C=C(/C)CCC[C@H](C)[C@@H]1O [Example 1, (4S,7R,8S,9S,13Z,16S(E))-4,8-Dihydroxy-16-(1-methyl-2-(2-pyridyl)ethenyl)-1-oxa-5,5,9,13-tetramethyl-7-(but-3-in-1-yl)-cyclohexadec-13-ene-2,6-dione]
IC50 [1, 3]: 30 nM
IC50 [2, 3]: 75 nM
Selectivity = IC50-(NCl/ADR): IC50 (MCF-7) [2]: 2.5

SMILES: C=CC[C@H]1C(=O)C(C)(C)[C@@H](O)CC(=O)O[C@H](/C(C)=C/c2csc(C)n2)C/C=C(/C)CCC[C@H](C)[C@@H]1O [Example 9, (4S,7R,8S,9S,13Z,16S(E))-4,8-Dihydroxy-16-(1-methyl-2-(2-methylthiazol-4-yl)ethenyl)-1-oxa-5,5,9,13-tetramethyl-7-(prop-2-en-1-yl)-cyclohexadec-13-ene-2,6-dione]
IC50 [1, 3]: 17 nM
IC50 [2, 3]: 41 nM
Selectivity = IC50-(NCl/ADR): IC50 (MCF-7) [2]: 2.4

SMILES: C=CCC[C@H]1C(=O)C(C)(C)[C@@H](O)CC(=O)O[C@H](/C(C)=C/c2ccccn2)C[C@@H]2O[C@]2(C)CCC[C@H](C)[C@@H]1O [Example 5A, (1S,3S(E),7S,10R,11S,12S,16R)-7,11-Dihydroxy-10-(but-3-en-1-yl)-3-(1-methyl-2-(2-pyridyl)ethenyl)-8,8,12,16-tetramethyl-4,17-dioxabicyclo[14.1.0]heptadecane-5,9-dione]
IC50 [1, 4]: 3.1 nM
IC50 [2, 4]: 3.8 nM
Selectivity = IC50-(NCl/ADR): IC50-(MCF-7) [2, 5]: 1.2

SMILES: C=CCC[C@H]1C(=O)C(C)(C)[C@@H](O)CC(=O)O[C@H](/C(C)=C/c2ccccn2)C/C=C(/C)CCC[C@H](C)[C@@H]1O [Example 2, (4S,7R,8S,9S,13Z,16S(E))-4,8-Dihydroxy-16-(1-methyl-2-(2-pyridyl)ethenyl)-1-oxa-5,5,9,13-tetramethyl-7-(but-3-en-1-yl)-cyclohexadec-13-ene-2,6-dione]
IC50 [1, 3]: 25 nM
IC50 [2, 3]: 70 nM
Selectivity = IC50-(NCl/ADR): IC50 (MCF-7) [2]: 2.8

SMILES: C#CCC[C@H]1C(=O)C(C)(C)[C@@H](O)CC(=O)O[C@H](/C(C)=C/c2ccccn2)C[C@@H]2OC2(C)CCC[C@H](C)[C@@H]1O (single isomer, unassigned) [Example 6A or B]
IC50 [1, 6]: 4.3 nM
IC50 [2, 6]: 68 nM
Selectivity = IC50-(NCl/ADR): IC50-(MCF-7) [2, 7]: 15.8

SMILES: C=CC[C@H]1C(=O)C(C)(C)[C@@H](O)CC(=O)O[C@H](c2ccc3oc(C)nc3c2)C/C=C(/C)CCC[C@H](C)[C@@H]1O [Example 21, (4S,7R,8S,9S,13Z,16S(E))-4,8-Dihydroxy-16-(2-methyl-benzoxazol-5-yl)-1-oxa-5,5,9,13-tetramethyl-7-(prop-2-en-1-yl)-cyclohexadec-13-ene-2,6-dione]
IC50 [1, 3]: 32 nM

The next lines start with results.

IC50 ([1]; Homo sapiens, MCF7, Table 1, epothilone derivatives with 13Z-unsaturated): 3.5 nM
IC50 ([2]; Homo sapiens, Table 1, epothilone derivatives with 13Z-unsaturated): > 100 nM
Selectivity = IC50-(NCl/ADR): IC50 (MCF-7) [2]: >28.6
IC50 [2, 4]: > 100 nM
Selectivity = IC50-(NCl/ADR): IC50-(MCF-7) [2, 5]: >29
IC50 [2, 6]: > 100 nM
Selectivity = IC50-(NCl/ADR): IC50-(MCF-7) [2, 7]: >29
SMILES: CC(=O)O[C@H]1C(=O)[C@@]2(C)[C@H]([C@H](OC(=O)c3ccccc3)[C@]3(O)C[C@H](OC(=O)[C@H](O)[C@@H](NC(=O)c4ccccc4)c4ccccc4)C(C)=C1C3(C)C)[C@]1(OC(C)=O)CO[C@@H]1C[C@@H]2O [Taxol, reference compound]
action on the multi-drug-resistant cell line NCl/ADR ([2]; in words, in comparison to Taxol): not exhibited

IC50 [1, 4]: 1.2 nM
IC50 [2, 4]: 3.6 nM
Selectivity = IC50-(NCl/ADR): IC50-(MCF-7) [2, 5]: 3.0
SMILES: C=CC[C@H]1C(=O)C(C)(C)[C@@H](O)CC(=O)O[C@H](/C(C)=C/c2csc(C)n2)C[C@@H]2O[C@]2(C)CCC[C@H](C)[C@@H]1O [Example 10A, (1S,3S(E),7S,10R,11S,12S,16R)-7,11-Dihydroxy-10-(prop-2-en-1-yl)-3-(1-methyl-2-(2-methylthiazol-4-yl)ethenyl)-8,8,12,16-tetramethyl-4,17-dioxabicyclo[14.1.0]heptadecane-5,9-dione]

IC50 [1, 3]: 34 nM
SMILES: C#CC[C@H]1C(=O)C(C)(C)[C@@H](O)CC(=O)O[C@H](/C(C)=C/c2ccccn2)C/C=C(/C)CCC[C@H](C)[C@@H]1O [Example 13, (4S,7R,8S,9S,13Z,16S(E))-4,8-Dihydroxy-16-(1-methyl-2-(2-pyridyl)ethenyl)-1-oxa-5,5,9,13-tetramethyl-7-(prop-2-in-1-yl)-cyclohexadec-13-ene-2,6-dione]

IC50 [1, 3]: 25 nM
IC50 [2, 3]: 41 nM
Selectivity = IC50-(NCl/ADR): IC50 (MCF-7) [2]: 1.6
SMILES: C#CC[C@H]1C(=O)C(C)(C)[C@@H](O)CC(=O)O[C@H](/C(F)=C/c2coc(C)n2)C/C=C(/C)CCC[C@H](C)[C@@H]1O [Example 27, (4S,7R,8S,9S,13Z,16S(Z))-4,8-Dihydroxy-16-(1-fluoro-2-(2-methyloxazol-4-yl)ethenyl)-7-(prop-2-in-1-yl)-1-oxa-5,5,9,13-tetramethyl-cyclohexadec-13-ene-2,6-dione]

IC50 [1, 6]: 18 nM
IC50 [2, 6]: 60 nM
Selectivity = IC50-(NCl/ADR): IC50-(MCF-7) [2, 7]: 3.3
SMILES: C#CC[C@H]1C(=O)C(C)(C)[C@@H](O)CC(=O)O[C@H](/C(F)=C/c2csc(C)n2)C[C@@H]2O[C@@]2(C)CCC[C@H](C)[C@@H]1O [Example 26A or B, (1S,3S(Z),7S,10R,11S,12S,16S)-7,11-Dihydroxy-3-(1-fluoro-2-(2-methyl-4-thiazolyl)ethenyl)-10-(prop-2-in-1-yl)-8,8,12,16-tetramethyl-4,17-dioxabicyclo[14.1.0]heptadecane-5,9-dione]

IC50 [1, 6]: 40 nM
IC50 [2, 6]: 61 nM
Selectivity = IC50-(NCl/ADR): IC50-(MCF-7) [2, 7]: 1.5
SMILES: C=CC[C@H]1C(=O)C(C)(C)[C@@H](O)CC(=O)O[C@H](/C(C)=C/c2csc(C)n2)C[C@H]2O[C@]2(C)CCC[C@H](C)[C@@H]1O [Example 12A or B, (1R,3S(E),7S,10R,11S,12S,16R)-7,11-Dihydroxy-10-(prop-2-en-1-yl)-3-(1-methyl-2-(2-methylthiazol-4-yl)ethenyl)-8,8,12,16-tetramethyl-4,17-dioxabicyclo[14.1.0]heptadecane-5,9-dione]

IC50 [1, 4]: 2.3 nM
IC50 [2, 4]: 11 nM
Selectivity = IC50-(NCl/ADR): IC50-(MCF-7) [2, 5]: 4.8
SMILES: C#CC[C@H]1C(=O)C(C)(C)[C@@H](O)CC(=O)O[C@H](/C(F)=C/c2csc(C)n2)C[C@@H]2O[C@]2(C)CCC[C@H](C)[C@@H]1O [Example 25, (1S,3S(Z),7S,10R,11S,12S,16R)-7,11-Dihydroxy-3-(1-fluoro-2-(2-methyl-4-thiazolyl)ethenyl)-10-(prop-2-in-1-yl)-8,8,12,16-tetramethyl-4,17-dioxabicyclo[14.1.0]heptadecane-5,9-dione]

IC50 [1, 6]: 4.8 nM
IC50 [2, 6]: 53 nM
Selectivity = IC50-(NCl/ADR): IC50-(MCF-7) [2, 7]: 11.0
SMILES: C=CC[C@H]1C(=O)C(C)(C)[C@@H](O)CC(=O)O[C@H](/C(C)=C/c2csc(C)n2)CC2O[C@@]2(C)CCC[C@H](C)[C@@H]1O (single isomer, unassigned) [Example 12B or A]

IC50 [1, 3]: 25 nM
SMILES: C=CC[C@H]1C(=O)C(C)(C)[C@@H](O)CC(=O)O[C@H](/C(C)=C/c2ccccn2)C/C=C(/C)CCC[C@H](C)[C@@H]1O [Example 15, (4S,7R,8S,9S,13Z,16S(E))-4,8-Dihydroxy-16-(1-methyl-2-(2-pyridyl)ethenyl)-1-oxa-5,5,9,13-tetramethyl-7-(prop-2-en-1-yl)-cyclohexadec-13-ene-2,6-dione]
